Measured values published in US12640239B2, “Functional biomarkers for statin therapy in age-related macular degeneration (AMD)” (APELIOTUS TECHNOLOGIES, INC., priority 2017, dated 2026).

Key:
Assay type in all cases: in vivo, human
[1] = system: AMD patients; test: Visual acuity, standard Snellen or ETDRS eye chart
Source text: (§1) Table 2 provides detailed information regarding patients 1 to 7, including the baseline diagnosis (diagnosis made when starting statin therapy), ending diagnosis (the diagnosis made on the date of the last referenced evaluation), the results of evaluations performed on each patient, and whether the patient responded to statin therapy. The dark adaptation data in this Example is the rod intercept time (or RI time) reported in minutes. In this Example, the dark adaptation data was collected using the AdaptDx® Dark Adaptometer (MacuLogix, Middletown, PA) running its standard Extended Test protocol. […] Data is automatically analyzed by the AdaptDx Dark Adaptometer to provide an RI time based on recovery to a criterion sensitivity level of 5×10^−3 scotopic cd/m^2. […] The visual acuity data was collected using a standard Snellen or ETDRS eye chart with the results presented using the standard 20/20 vision scale. Drusen resolution was determined by evaluation of fundus and OCT imaging by qualified clinicians experienced in AMD evaluation. Fundus and OCT imaging data was collected using the Heidelberg Engineering Spectralis® SD-OCT (Heidelberg, Germany) or the Karl Zeiss Meditec Cirrus® HD-OCT (Jena, Germany), in both cases running standard protocols with automated data analysis performed by the instruments.

[2] = system: AMD patients; test: Fundus and OCT imaging: drusen resolution, retinal thickness and volume; settings: for Average retinal thickness / Average total volume (retina) / Retinal thickness, maximum / Retinal thickness, minimum: Patient 2, atorvastatin 80 mg/day; for OCT retinal imaging finding: Patient 5, atorvastatin 80 then 20 mg/day, April 2018 vs January 2014
Source text: The patient was asked to report any perceived changes in visual function during the course of the treatment. […] The self-reported improvement was confirmed at months 15 and 22 of treatment. […] The resolution of the drusen was confirmed by fundus photography and optical coherence tomography (OCT) imaging.
as §1
(§2) The baseline diagnosis and ending diagnosis are the result of clinical assessment by qualified clinicians experienced in evaluation of AMD patients. The clinical assessment was carried out utilizing standard ophthalmic testing, such as, but not limited to, slit-lamp biomicroscopy (including looking for evidence of drusen and pigmentary changes), fundus and OCT imaging (including looking for evidence of drusen and pigmentary changes and calculation of retinal volume and retinal thickness), and testing with a Snellen or ETDRS eye chart (including looking for visual acuity changes that might indicate a change in disease status). Dark adaptation results were not used in the clinical assessment of the baseline or ending diagnosis.

[3] = system: AMD patients; test: Clinical assessment of AMD diagnosis and response to statin therapy
Source text: AMD status has been determined in the art using a number of recognized grading systems, such as the Beckman AMD Classification System, the Age-Related Eye Disease Study (AREDS) Severity Scale, the AREDS Simplified Severity Scale, the International Classification and Grading System for AMD, and the Wisconsin Age-Related Maculopathy Grading System. When a determination of AMD status is required for a subject, the determination of AMD status is made using the Beckman AMD Classification System (Ferris et al. Ophthalmology 2013; 120:844-851).
as §1, §2
Patients 1, 3-5 and 7 were determined to be non-responders to statin treatment as the initial diagnosis was unchanged after treatment and clinical evaluation. […] For patient 2, RI time improved by 1.67 minutes OD and 2.60 minutes OS agreeing with the clinical assessment of a response to statin therapy (i.e., improving clinically). Patient 6 could not be clearly classified as a responder or non-responder to statin treatment. […] For patient 6, RI time decreased by 2.2 minutes OD, agreeing with the initial clinical signs of a response to statin therapy.

[4] = Patient #5, atorvastatin 80 mg/day from January 2014, OD, month 0 (January 2014), baseline
[5] = Patient #5, atorvastatin 80 mg/day from January 2014, OS, month 0 (January 2014), baseline

CC(C)c1c(C(=O)Nc2ccccc2)c(-c2ccccc2)c(-c2ccc(F)cc2)n1CC[C@@H](O)C[C@@H](O)CC(=O)O [atorvastatin]
VA (visual acuity) ([1]; Patient #1, atorvastatin 20 to 80 mg/day, OD, month 0 (July 2013), baseline): VA 20/25
VA (visual acuity) ([1]; Patient #1, atorvastatin 20 to 80 mg/day, OD, month 59 (June 2018)): VA 20/25
VA (visual acuity) ([1]; Patient #1, atorvastatin 20 to 80 mg/day, OS, month 0 (July 2013), baseline): VA 20/32
VA (visual acuity) ([1]; Patient #1, atorvastatin 20 to 80 mg/day, OS, month 59 (June 2018)): VA 20/25
VA (visual acuity) ([1]; Patient #2, atorvastatin 80 mg/day, OD, month 64 (May 2018)): VA 20/30
VA (visual acuity) ([1]; Patient #2, atorvastatin 80 mg/day, OS, month 64 (May 2018)): VA 20/20
VA (visual acuity) ([1]; Patient #4, atorvastatin 80 mg/day, OD, month 0 (May 2018), baseline): VA 20/200
VA (visual acuity) ([1]; Patient #4, atorvastatin 80 mg/day, OD, month 3 (August 2018)): VA 20/200
VA (visual acuity) ([1]; Patient #4, atorvastatin 80 mg/day, OS, month 0 (May 2018), baseline): VA 20/20
VA (visual acuity) ([1]; Patient #4, atorvastatin 80 mg/day, OS, month 3 (August 2018)): VA 20/20
VA (visual acuity) [1, 4]: VA 20/25
VA (visual acuity) [1, 5]: VA 20/25
Drusen resolution ([2]; Example 1: adult female, intermediate AMD, oral atorvastatin increasing to 80 mg per day over six months): eventual resolution of the drusen
Drusen resolution (ophthalmic examination, fundus photography, OCT) ([2]; Example 2: adult person, intermediate AMD, oral atorvastatin 10 to 80 mg per day, month 15): substantially complete resolution of the drusen
Average retinal thickness ([2]; left eye, August 2016 OCT): 193 µm
Average total volume (retina) ([2]; left eye, August 2016 OCT): 8.2 mm^3
Retinal thickness, maximum ([2]; left eye, August 2016 OCT): 291 µm
Retinal thickness, minimum ([2]; left eye, August 2016 OCT): 191 µm
Average retinal thickness ([2]; left eye, February 2016 OCT): 364 µm
Average total volume (retina) ([2]; left eye, February 2016 OCT): 8.45 mm^3
Retinal thickness, maximum ([2]; left eye, February 2016 OCT): 457 µm
Retinal thickness, minimum ([2]; left eye, February 2016 OCT): 217 µm
Average retinal thickness ([2]; right eye, August 2015 OCT): 179 µm
Average total volume (retina) ([2]; right eye, August 2015 OCT): 8.49 mm^3
Retinal thickness, maximum ([2]; right eye, August 2015 OCT): 461 µm
Retinal thickness, minimum ([2]; right eye, August 2015 OCT): 176 µm
Average retinal thickness ([2]; right eye, December 2015 OCT): 199 µm
Average total volume (retina) ([2]; right eye, December 2015 OCT): 8.23 mm^3
Retinal thickness, maximum ([2]; right eye, December 2015 OCT): 332 µm
Retinal thickness, minimum ([2]; right eye, December 2015 OCT): 170 µm
OCT retinal imaging finding ([2]; pravastatin 20 mg/day from April 2018, left eye): development of a PED
OCT retinal imaging finding ([2]; pravastatin 20 mg/day from April 2018, right eye): increased drusen accumulation with possible increase in drusen size
Drusen resolution ([2]; Patient #1, atorvastatin 20 to 80 mg/day, OU, month 59 (June 2018)): No indication of drusen resolution OU
Decrease in retina volume ([2]; Patient #2, atorvastatin 80 mg/day, OD, month 35 (December 2015 vs August 2015)): volume of 0.26 mm^3
Decrease in retina volume ([2]; Patient #2, atorvastatin 80 mg/day, OS, month 43 (August 2016 vs February 2016)): volume of 0.25 mm^3
SDD resolution ([2]; Patient #3, atorvastatin 80 mg/day, OU, month 19 (May 2018)): No indication of SDD resolution OU
Drusen resolution ([2]; Patient #4, atorvastatin 80 mg/day, OU, month 3 (August 2018)): No indication of drusen resolution OU
Drusen resolution ([2]; Patient #5, atorvastatin 80 mg/day (suspended January 2015-February 2016), then 20 mg/day, pravastatin 20 mg/day from April 2018, OU, month 51 (April 2018)): No indication of drusen resolution OU
Decrease in retina volume ([2]; Patient #6, atorvastatin 80 mg/day, OD, month 9 (August 2018)): volume of 0.09 mm^3
Decrease in retina volume ([2]; Patient #6, atorvastatin 80 mg/day, OS, month 9 (August 2018)): volume of 0.1 mm^3
Drusen resolution ([2]; Patient #6, atorvastatin 80 mg/day, OU, month 9 (August 2018)): Initial signs of drusen resolution OU
Drusen resolution ([2]; Patient #7, atorvastatin 10 to 20 mg/day, OU, month 27 (July 2018)): No indication of drusen resolution OU
Diagnosis ([3]; Patient #1, atorvastatin 20 to 80 mg/day from July 2013, OD, month 0 (July 2013), baseline): Intermediate AMD
Diagnosis ([3]; Patient #1, atorvastatin 20 to 80 mg/day from July 2013, OS, month 0 (July 2013), baseline): Intermediate AMD
Diagnosis ([3]; Patient #1, atorvastatin 20 to 80 mg/day, OD, month 60 (July 2018), ending diagnosis): Intermediate AMD
Diagnosis ([3]; Patient #1, atorvastatin 20 to 80 mg/day, OS, month 60 (July 2018), ending diagnosis): Intermediate AMD
Responder ([3]; Patient #1, atorvastatin 20 to 80 mg/day, month 60 (July 2018)): No
Diagnosis ([3]; Patient #2, atorvastatin 80 mg/day from January 2013, OD, month 0 (January 2013), baseline): Intermediate AMD
Diagnosis ([3]; Patient #2, atorvastatin 80 mg/day from January 2013, OS, month 0 (January 2013), baseline): Intermediate AMD
Diagnosis ([3]; Patient #2, atorvastatin 80 mg/day, OD, month 66 (July 2018), ending diagnosis): Early AMD
Diagnosis ([3]; Patient #2, atorvastatin 80 mg/day, OS, month 66 (July 2018), ending diagnosis): Early AMD
Responder ([3]; Patient #2, atorvastatin 80 mg/day, month 66 (July 2018)): Yes
Diagnosis ([3]; Patient #3, atorvastatin 80 mg/day from October 2016, OD, month 0 (October 2016), baseline): Late AMD (CNV)
Diagnosis ([3]; Patient #3, atorvastatin 80 mg/day, OD, month 20 (June 2018), ending diagnosis): Late AMD (CNV)
Responder ([3]; Patient #3, atorvastatin 80 mg/day, month 20 (June 2018)): No
Diagnosis ([3]; Patient #4, atorvastatin 80 mg/day from May 2018, OD, month 0 (May 2018), baseline): Late AMD (GA)
Diagnosis ([3]; Patient #4, atorvastatin 80 mg/day from May 2018, OS, month 0 (May 2018), baseline): Intermediate AMD
Diagnosis ([3]; Patient #4, atorvastatin 80 mg/day, OD, month 4 (September 2018), ending diagnosis): Late AMD (GA)
Diagnosis ([3]; Patient #4, atorvastatin 80 mg/day, OS, month 4 (September 2018), ending diagnosis): Intermediate AMD
Responder ([3]; Patient #4, atorvastatin 80 mg/day, month 4 (September 2018)): No
Diagnosis ([3]; Patient #5, atorvastatin 80 mg/day (suspended January 2015-February 2016), then 20 mg/day, pravastatin 20 mg/day from April 2018, OD, month 52 (June 2018), ending diagnosis): Intermediate AMD
Diagnosis ([3]; Patient #5, atorvastatin 80 mg/day (suspended January 2015-February 2016), then 20 mg/day, pravastatin 20 mg/day from April 2018, OS, month 52 (June 2018), ending diagnosis): Intermediate AMD
Responder ([3]; Patient #5, atorvastatin 80 mg/day (suspended January 2015-February 2016), then 20 mg/day, pravastatin 20 mg/day from April 2018, month 52 (June 2018)): No
Diagnosis [3, 4]: Intermediate AMD
Diagnosis [3, 5]: Intermediate AMD
Diagnosis ([3]; Patient #6, atorvastatin 80 mg/day from November 2017, OD, month 0 (November 2017), baseline): Intermediate AMD
Diagnosis ([3]; Patient #6, atorvastatin 80 mg/day from November 2017, OS, month 0 (November 2017), baseline): Intermediate AMD
Diagnosis ([3]; Patient #6, atorvastatin 80 mg/day, OD, month 9 (August 2018), ending diagnosis): Intermediate AMD
Diagnosis ([3]; Patient #6, atorvastatin 80 mg/day, OS, month 9 (August 2018), ending diagnosis): Intermediate AMD
Responder ([3]; Patient #6, atorvastatin 80 mg/day, month 9 (August 2018)): Maybe
Diagnosis ([3]; Patient #7, atorvastatin 10 to 20 mg/day from April 2016, OD, month 0 (April 2016), baseline): Intermediate AMD
Diagnosis ([3]; Patient #7, atorvastatin 10 to 20 mg/day from April 2016, OS, month 0 (April 2016), baseline): Intermediate AMD
Diagnosis ([3]; Patient #7, atorvastatin 10 to 20 mg/day, OD, month 27 (July 2018), ending diagnosis): Intermediate AMD
Diagnosis ([3]; Patient #7, atorvastatin 10 to 20 mg/day, OS, month 27 (July 2018), ending diagnosis): Intermediate AMD
Responder ([3]; Patient #7, atorvastatin 10 to 20 mg/day, month 27 (July 2018)): No
